Assay results taken from the supplement of paper PMC5908809.

Columns and labels:
[1] = test system: normal primary NK cells, pool 2 (3 donors) (IL-2 2.5 ng/mL); assay: drug sensitivity score (DSS) (DSS units); higher = more sensitive; extreme values may be limits of the assay; settings: 72 h
[2] = test system: KHYG-1 (IL-2 2.5 ng/mL); assay: as above; settings: 72 h
[3] = test system: NKL (IL-2 2.5 ng/mL); assay: as above; settings: 72 h
[4] = test system: IMC-1 (IL-2 20 ng/mL); assay: as above; settings: 72 h
[5] = test system: normal primary NK cells, pool 1 (3 donors) (IL-2 2.5 ng/mL); assay: as above; settings: 72 h
[6] = test system: SNK-6 (IL-2 2.5 ng/mL); assay: as above; settings: 72 h
[7] = test system: normal primary NK cells, pool 1 (3 donors), resting (IL-2 0 ng/mL); assay: as above; settings: 72 h
[8] = test system: NK-92 (IL-2 2.5 ng/mL); assay: as above; settings: 72 h
[9] = test system: NK-YS (IL-2 2.5 ng/mL); assay: as above; settings: 72 h
[10] = test system: KAI3 (IL-2 2.5 ng/mL); assay: as above; settings: 72 h
[11] = test system: YT (IL-2 2.5 ng/mL); assay: as above; settings: 72 h
[12] = test system: DERL-7 (IL-2 2.5 ng/mL); assay: as above; settings: 72 h
[13] = test system: normal primary NK cells, pool 3 (3 donors) (IL-2 2.5 ng/mL); assay: as above; settings: 72 h
[14] = test system: normal NK cells expanded with K562-aAPC; assay: percent inhibition of viability; higher = more inhibition; settings: 72 h, IL-2 2.5 ng/mL
Method: (§1)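 Drug sensitivity and resistance testing on K562-aAPC-expanded normal NK cells: 5 concentrations (10-fold steps over a 10,000-fold range), 72 h at 37 °C, viability by CellTiter-Glo normalised to DMSO and benzethonium chloride controls; DSS from the fitted curve.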

[15] = test system: normal primary NK cells, pool 2 (3 donors) (IL-2 2.5 ng/mL); assay: as above; settings: 72 h
[16] = test system: KHYG-1 (IL-2 2.5 ng/mL); assay: as above; settings: 72 h
[17] = test system: NKL (IL-2 2.5 ng/mL); assay: as above; settings: 72 h
[18] = test system: IMC-1 (IL-2 20 ng/mL); assay: as above; settings: 72 h
[19] = test system: normal primary NK cells, pool 1 (3 donors) (IL-2 2.5 ng/mL); assay: as above; settings: 72 h
[20] = test system: SNK-6 (IL-2 2.5 ng/mL); assay: as above; settings: 72 h
[21] = test system: normal primary NK cells, pool 1 (3 donors), resting (IL-2 0 ng/mL); assay: as above; settings: 72 h
[22] = test system: NK-92 (IL-2 2.5 ng/mL); assay: as above; settings: 72 h
[23] = test system: NK-YS (IL-2 2.5 ng/mL); assay: as above; settings: 72 h
[24] = test system: KAI3 (IL-2 2.5 ng/mL); assay: as above; settings: 72 h
[25] = test system: YT (IL-2 2.5 ng/mL); assay: as above; settings: 72 h
[26] = test system: DERL-7 (IL-2 2.5 ng/mL); assay: as above; settings: 72 h
[27] = test system: normal primary NK cells, pool 3 (3 donors) (IL-2 2.5 ng/mL); assay: as above; settings: 72 h
[28] = test system: normal NK cells expanded with K562-aAPC; assay: drug sensitivity score (DSS) (DSS units); higher = more sensitive; extreme values may be limits of the assay; settings: 72 h; IL-2 2.5 ng/mL
Method: as §1

O=C(Nc1ccc(-c2ccnc(Nc3ccc(N4CCOCC4)cc3)n2)cc1)C1CCCN1 (stereo not given) [XL019] (max concentration tested 10000 nM)
Settings | drug sensitivity score
[1] | 7.07
[2] | 5.54
[3] | 9.26
[4] | 3.31
[5] | 5.96
[6] | 0.74
[7] | 6.18
[8] | 1.81
[9] | 3.62
[10] | 7.51
[11] | 1.85
[12] | 6.99
[13] | 6.8
[28] | 6.07

percent inhibition of viability [%]
Settings | 1 nM | 10 nM | 100 nM | 1000 nM | 10000 nM
[14] | -3.5 | -1.96 | 2.68 | 12.6 | 72
[15] | -2.68 | -3.46 | -5.23 | 19.5 | 74.1
[16] | -4.32 | -2.94 | 2.79 | 6.64 | 81.2
[17] | -2.13 | 4.85 | 23.2 | 31.3 | 72.5
[18] | -1.28 | -4.89 | 1.81 | -0.33 | 61.4
[19] | -9.78 | 0.22 | -10.4 | 9.22 | 80
[20] | -2.35 | -15.3 | 3.5 | -9.49 | 27.1
[21] | 1.73 | 2.9 | -4.73 | 19.1 | 61.7
[22] | 1.46 | -2 | -6.58 | -8.42 | 44.8
[23] | -3 | -6.33 | -0.83 | 6.03 | 49.6
[24] | -6.77 | -0.02 | 6.51 | 18.2 | 83.2
[25] | 0.46 | -0.22 | 5.02 | 2.15 | 33.3
[26] | 0.19 | 0.52 | 7.06 | 25.9 | 71.8
[27] | -1.82 | 6.1 | -1.33 | 13.9 | 81.2

Nc1nc(F)nc2c1ncn2[C@@H]1O[C@H](CO)[C@@H](O)[C@@H]1O [Fludarabine] (max concentration tested 10000 nM)
Settings | drug sensitivity score
[1] | 10.8
[2] | 5.42
[3] | 12.3
[4] | 2.89
[5] | 10.6
[6] | 7.06
[7] | 13.5
[8] | 9.32
[9] | 0.32
[10] | 7.22
[11] | 0
[12] | 3.52
[13] | 9.07
[28] | 13.3

percent inhibition of viability [%]
Settings | 1 nM | 10 nM | 100 nM | 1000 nM | 10000 nM
[14] | -4.55 | -1.76 | -0.86 | 67.3 | 100
[15] | -15.8 | -12 | 5.13 | 47.7 | 93
[16] | -3.8 | -1.74 | -3.07 | 5.53 | 82.9
[17] | -18.8 | -16.5 | -2.27 | 56.9 | 100
[18] | -8.37 | 2.44 | -0.32 | 0.25 | 53.5
[19] | 6.23 | -6.78 | 8.3 | 45.7 | 93.6
[20] | 18.4 | 33.8 | 24.8 | 32.5 | 28
[21] | -2.66 | -18.7 | 10.1 | 65.3 | 89.5
[22] | -5.82 | -19.1 | -10.8 | 24.7 | 101
[23] | -7.11 | -1.12 | -0.69 | 4.05 | 12.8
[24] | -10.9 | -7.43 | -11.6 | 10.9 | 97.9
[25] | -2.12 | 0.54 | 0.43 | -2.19 | 4.14
[26] | -6.18 | -6.69 | 2.47 | -9.31 | 74.8
[27] | -13.2 | -7.62 | 3.81 | 29.6 | 90.2

CNC(=O)c1cc(Oc2ccc(NC(=O)Nc3ccc(Cl)c(C(F)(F)F)c3)c(F)c2)ccn1 [Regorafenib] (max concentration tested 10000 nM)
Settings | drug sensitivity score
[1] | 5.3
[2] | 6.71
[3] | 6.61
[4] | 3.09
[5] | 4.63
[6] | 13.9
[7] | 6.48
[8] | 9.31
[9] | 6.12
[10] | 4.49
[11] | 8.99
[12] | 7.66
[13] | 3.62
[28] | 0.41

percent inhibition of viability [%]
Settings | 1 nM | 10 nM | 100 nM | 1000 nM | 10000 nM
[14] | 3.1 | -1.28 | -0.64 | -2.22 | 19.1
[15] | -10.1 | -16.9 | -7.59 | 12.1 | 61
[16] | -1.86 | -1.02 | 1.17 | 11.2 | 87.3
[17] | -7.68 | -18.9 | -10.6 | 17.4 | 70.8
[18] | -4.09 | -5.72 | 3.85 | 6.77 | 39.6
[19] | -13.1 | 1.52 | -11 | 1.66 | 79.7
[20] | 9.61 | 17.5 | 36.1 | 38.7 | 63.7
[21] | 6.64 | 8.24 | -7.13 | 12.5 | 79.3
[22] | 0.49 | 12.1 | 12 | 37.9 | 85.7
[23] | -1 | -1.21 | 3.83 | 15.4 | 67
[24] | -0.04 | -3.7 | -6.12 | -2.83 | 85.1
[25] | 2 | 0.08 | 3.65 | 21.9 | 100
[26] | 2.39 | 2.44 | -0.06 | 27.7 | 70.5
[27] | -11.7 | -13.3 | -6.26 | 6.56 | 48.1

Nc1ccn([C@@H]2O[C@H](CO)[C@@H](O)[C@@H]2O)c(=O)n1 [Cytarabine] (max concentration tested 10000 nM)
Settings | drug sensitivity score
[1] | 6.63
[2] | 30.8
[3] | 24.4
[4] | 25
[5] | 7.89
[6] | 19.1
[7] | 8.4
[8] | 23.6
[9] | 16
[10] | 26.2
[11] | 3.34
[12] | 31.5
[13] | 5.19
[28] | 19

percent inhibition of viability [%]
Settings | 1 nM | 10 nM | 100 nM | 1000 nM | 10000 nM
[14] | 0.23 | -1.23 | 28.7 | 84.4 | 98.9
[15] | -14.2 | -13.4 | -1.98 | 13.2 | 79.9
[16] | -3.64 | 17.1 | 88.3 | 105 | 102
[17] | -6.71 | 6.58 | 60.2 | 94.3 | 93.6
[18] | -2.71 | -1.64 | 59.5 | 98.2 | 99.6
[19] | -4.48 | -4.56 | -4.83 | 23 | 80.4
[20] | 18.7 | 4.98 | 31.7 | 83.1 | 97.5
[21] | -11.7 | -15.1 | -18.8 | 29.4 | 78.7
[22] | 0.96 | 0.98 | 50.8 | 95.5 | 97.8
[23] | -6.32 | -1.48 | 14 | 77.5 | 92.9
[24] | -13.4 | 12.5 | 67.4 | 95.8 | 95.5
[25] | -3.82 | 0.15 | -0.65 | 19.1 | 28.4
[26] | -3.03 | 23.2 | 88.8 | 98.1 | 99.7
[27] | -11.3 | -7.93 | -9.4 | 7.11 | 73.2

COCC(=O)NC/C=C/c1ccc2ncnc(Nc3ccc(Oc4ccc(C)nc4)c(C)c3)c2c1 (max concentration tested 10000 nM)
Settings | drug sensitivity score
[1] | 2.13
[2] | 1.16
[3] | 4.55
[4] | 3.25
[5] | 0.09
[6] | 3.37
[7] | 6.9
[8] | 7.15
[9] | 1.75
[10] | 5.41
[11] | 4.08
[12] | 2.95
[13] | 0.05
[28] | 0

percent inhibition of viability [%]
Settings | 1 nM | 10 nM | 100 nM | 1000 nM | 10000 nM
[14] | -7.95 | -1.69 | -8 | -3.66 | 3.1
[15] | 1.3 | 6.76 | -0.67 | 11.9 | 23.1
[16] | -2.05 | -5.21 | -2.56 | -1.27 | 29.4
[17] | 1.03 | -1.8 | 0.69 | 8.06 | 58.8
[18] | -0.96 | -1.82 | -0.25 | 1.87 | 55.9
[19] | -12 | -6.34 | -1.36 | -3.88 | 14.2
[20] | -0.22 | -18.4 | -12.7 | -1.13 | 63.7
[21] | 14.9 | 9.42 | 15.7 | 21.2 | 61
[22] | 1.59 | 8.37 | 6.53 | 22.8 | 75
[23] | -0.22 | 0.49 | 1.46 | 4.98 | 25.6
[24] | 16.4 | 7.76 | 7.06 | 11.1 | 64.8
[25] | 3.6 | -0.32 | 0.57 | 9.46 | 48.2
[26] | -3.08 | -0.4 | -4.63 | 9.9 | 33
[27] | -5.66 | 4.44 | 4.87 | 10.9 | 5.97
